From patent publication US11214538B2, “Farnesoid X receptor agonists and uses thereof” (Metacrine, Inc., priority 2015, dated 2022) come the findings set out here.

Bounds are passed on as bounds.

This experiment deals with T1, hFXR (Homo sapiens, UniProt Q96RI1).
T1 construct: expressed in transfected cells; host or cells: CV-1 cells
T1 sequence (Q96RI1 1-486): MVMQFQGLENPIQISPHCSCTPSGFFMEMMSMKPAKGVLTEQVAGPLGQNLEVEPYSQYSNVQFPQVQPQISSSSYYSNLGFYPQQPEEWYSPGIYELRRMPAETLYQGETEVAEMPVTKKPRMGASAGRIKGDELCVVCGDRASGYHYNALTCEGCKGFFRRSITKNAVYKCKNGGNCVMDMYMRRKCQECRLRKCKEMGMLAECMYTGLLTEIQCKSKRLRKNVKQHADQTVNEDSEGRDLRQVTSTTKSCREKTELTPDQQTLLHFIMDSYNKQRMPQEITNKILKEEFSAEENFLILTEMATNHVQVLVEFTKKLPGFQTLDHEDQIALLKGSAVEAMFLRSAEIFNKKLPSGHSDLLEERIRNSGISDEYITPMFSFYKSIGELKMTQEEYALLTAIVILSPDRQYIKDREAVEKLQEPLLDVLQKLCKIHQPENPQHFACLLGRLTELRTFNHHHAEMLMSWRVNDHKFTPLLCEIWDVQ
T1 sequence (P19793 1-462 partner): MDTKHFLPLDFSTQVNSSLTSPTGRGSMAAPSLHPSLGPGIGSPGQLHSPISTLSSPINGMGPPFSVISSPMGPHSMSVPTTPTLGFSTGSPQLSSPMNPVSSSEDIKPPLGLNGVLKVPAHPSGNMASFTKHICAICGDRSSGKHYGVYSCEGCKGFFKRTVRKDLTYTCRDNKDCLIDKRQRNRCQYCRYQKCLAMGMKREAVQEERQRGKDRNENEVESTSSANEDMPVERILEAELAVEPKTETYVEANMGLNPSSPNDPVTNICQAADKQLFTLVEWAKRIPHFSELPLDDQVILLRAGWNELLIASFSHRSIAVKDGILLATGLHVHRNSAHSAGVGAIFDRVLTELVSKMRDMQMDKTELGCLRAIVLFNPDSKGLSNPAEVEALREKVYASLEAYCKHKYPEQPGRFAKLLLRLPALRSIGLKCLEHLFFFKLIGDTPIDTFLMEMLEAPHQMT
Put plainly: In Vitro FXR Assay (TK), luciferase reporter in transfected CV-1 cells. It counts as cell-based. The settings on record: CV-1 cells transfected with hFXR, hRXR, TK-ECRE-luc; 18 hrs incubation; luminescence; compounds with a maximum efficacy of <25% of the Fexaramine control classified as '+'. On the procedure:
Example B-2: In Vitro FXR Assay (TK)
CV-1 cells were seeded at a density of 2,000,000 cells in a T175 flask with DMEM+10% charcoal double-stripped FBS and incubated at 37° C. in 5% CO2 for 18 h (O/N).
After 18 h of incubation, the medium in the T175 flask was changed with fresh DMEM+10% charcoal super-stripped serum. In a polypropylene tube, 2500 μL OptiMEM (Life Technologies, Cat #31985-062) was combined with expression plasmids for hFXR, hRXR, TK-ECRE-luc and pCMX-YFP. The tube was then briefly vortexed and incubated at room temperature for 5 minutes. Transfection reagent (X-tremeGENE HP from Roche, Cat #06 366 236 001) was added to the OptiMEM/plasmid mixture vortexed and incubated at room temperature for 20 minutes. Following incubation, the transfection reagent/DNA mixture complex was added to cells in the T175 flask and the cells were incubated at 37° C. in 5% CO2 for 18 h (O/N).
Compounds were serially diluted in DMSO and added to transfected CV-1 cells. The cells were then incubated for 18 hrs. The next day cells were lysed and examined for luminescence.
For orientation: Reporter assays use an easily measured gene product as a stand-in for the process of interest.

For `COc1ccc(-c2cccc(N(Cc3ccc(-c4ccc(N(C)C)cc4)cc3)C(=O)C3CCCCC3)c2)cc1` [Compound 3.1, N-((4′-(Dimethylamino)-[1,1′-biphenyl]-4-yl)methyl)-N-(4′-methoxy-[1,1′-biphenyl]-3-yl)cyclohexanecarboxamide], the EC50 was ≤ 3 µM.
As to `CN(C)c1ccc(-c2ccc(CN(C(=O)C3CCCCC3)c3cccc(CCc4ncco4)c3)cc2)cc1` [Compound 22, N-((4′-(Dimethylamino)-[1,1′-biphenyl]-4-yl)methyl)-N-(3-(2-(oxazol-2-yl)ethyl)phenyl)cyclohexanecarboxamide], the EC50 was ≤ 3 µM.
`CN(C)c1ccc(-c2ccc(CN(C(=O)C3CCCCC3)c3cccc(-c4cccnc4)c3)cc2)cc1` [Compound 23, N-((4′-(Dimethylamino)-[1,1′-biphenyl]-4-yl)methyl)-N-(3-(pyridin-3-yl)phenyl)cyclohexanecarboxamide] had an EC50 of 3 to 10 µM.
Turning to `Cc1cncc(-c2cccc(N(Cc3ccc(-c4ccc(N(C)C)cc4)cc3)C(=O)C3CCCCC3)c2)c1` [Compound 24, N-((4′-(Dimethylamino)-[1,1′-biphenyl]-4-yl)methyl)-N-(3-(5-methylpyridin-3-yl)phenyl)cyclohexanecarboxamide], the EC50 fell in the range of 3 to 10 µM.
For the molecule `CN(C)c1ccc(-c2ccc(CN(C(=O)C3CCCCC3)c3cccc(/C=C/c4ccccn4)c3)cc2)cc1` [Compound 27, (E)-N-((4′-(Dimethylamino)-[1,1′-biphenyl]-4-yl)methyl)-N-(3-(2-(pyridin-2-yl)vinyl)phenyl)cyclohexanecarboxamide], the EC50 was ≤ 3 µM.
Turning to `CN(C)c1ccc(-c2ccc(CN(C(=O)C3CCCCC3)c3cccc(/C=C/c4ccncc4)c3)cc2)cc1` [Compound 28, (E)-N-((4′-(Dimethylamino)-[1,1′-biphenyl]-4-yl)methyl)-N-(3-(2-(pyridin-4-yl)vinyl)phenyl)cyclohexanecarboxamide], the EC50 lay in the range of 3 to 10 µM.
In the case of `COc1ncc(-c2cccc(N(Cc3ccc(-c4ccc(N(C)C)cc4)cc3)C(=O)C3CCCCC3)c2)s1` [Compound 29, N-((4′-(Dimethylamino)-[1,1′-biphenyl]-4-yl)methyl)-N-(3-(2-methoxythiazol-5-yl)phenyl)cyclohexanecarboxamide], the EC50 is ≤ 3 µM.
`COc1ccc(-c2cccc(N(Cc3ccc(-c4ccc(N(C)C)cc4)cc3)C(=O)C3CCCCC3)c2)s1` [Compound 31, N-((4′-(Dimethylamino)-[1,1′-biphenyl]-4-yl)methyl)-N-(3-(5-methoxythiophen-2-yl)phenyl)cyclohexanecarboxamide]: the EC50 is ≤ 3 µM.
For the molecule `CCc1cncc(-c2cccc(N(Cc3ccc(-c4ccc(N(C)C)cc4)cc3)C(=O)C3CCCCC3)c2)c1` [Compound 33, N-((4′-(Dimethylamino)-[1,1′-biphenyl]-4-yl)methyl)-N-(3-(5-ethylpyridin-3-yl)phenyl)cyclohexanecarboxamide], the EC50 is 3 to 10 µM.
Take `COc1cc(-c2cccc(N(Cc3ccc(-c4ccc(N(C)C)cc4)cc3)C(=O)C3CCCCC3)c2)ncn1` [Compound 35, N-((4′-(Dimethylamino)-[1,1′-biphenyl]-4-yl)methyl)-N-(3-(6-methoxypyrimidin-4-yl)phenyl)cyclohexanecarboxamide]: the EC50 was ≤ 3 µM.
`COc1cc(-c2cccc(N(Cc3ccc(-c4ccc(N(C)C)cc4)cc3)C(=O)C3CCCCC3)c2)sn1` [Compound 43, N-((4′-(Dimethylamino)-[1,1′-biphenyl]-4-yl)methyl)-N-(3-(3-methoxyisothiazol-5-yl)phenyl)cyclohexanecarboxamide]: the EC50 is ≤ 3 µM.
As for `CN(C)c1ccc(-c2ccc(CN(C(=O)C3CCCCC3)c3cccc(-c4cc(=O)n(C)s4)c3)cc2)cc1` [Compound 44, N-((4′-(Dimethylamino)-[1,1′-biphenyl]-4-yl)methyl)-N-(3-(2-methyl-3-oxo-2,3-dihydroisothiazol-5-yl)phenyl)cyclohexanecarboxamide], the figure is ≤ 3 µM; as for `COc1ccc([C@H]2CC[C@H](CN(c3cccc(N4CC(OC)C4)c3)C(=O)[C@H]3CC[C@H](O)CC3)CC2)cc1C` [Compound 45, trans-4-Hydroxy-N-((trans-4-(4-methoxy-3-methylphenyl)cyclohexyl)methyl)-N-(3-(3-methoxyazetidin-1-yl)phenyl)cyclohexanecarboxamide], ≤ 3 µM.
As to `COCC1CN(c2cccc(N(C[C@H]3CC[C@H](c4ccc(OC)c(C)c4)CC3)C(=O)[C@H]3CC[C@H](O)CC3)c2)C1` [Compound 46, trans-4-Hydroxy-N-((trans-4-(4-methoxy-3-methylphenyl)cyclohexyl)methyl)-N-(3-(3-(methoxymethyl)azetidin-1-yl)phenyl)cyclohexanecarboxamide], the concentration for a half-maximal effect (EC50) was ≤ 3 µM.
Molecule `COc1ccc([C@H]2CC[C@H](CN(c3cccc(N4CCC(OC)C4)c3)C(=O)[C@H]3CC[C@H](O)CC3)CC2)cc1C` (stereo partly drawn) [Compound 47, trans-4-Hydroxy-N-((trans-4-(4-methoxy-3-methylphenyl)cyclohexyl)methyl)-N-(3-(3-methoxypyrrolidin-1-yl)phenyl)cyclohexanecarboxamide] registered an EC50 of 3 to 10 µM.
Turning to `COCC1CCN(c2cccc(N(C[C@H]3CC[C@H](c4ccc(OC)c(C)c4)CC3)C(=O)[C@H]3CC[C@H](O)CC3)c2)C1` (stereo partly drawn) [Compound 48, trans-4-Hydroxy-N-((trans-4-(4-methoxy-3-methylphenyl)cyclohexyl)methyl)-N-(3-(3-(methoxymethyl)pyrrolidin-1-yl)phenyl)cyclohexanecarboxamide], the EC50 was 3 to 10 µM.
As for `COc1ccc([C@H]2CC[C@H](CN(c3cccc(N4CCC(OC)CC4)c3)C(=O)[C@H]3CC[C@H](O)CC3)CC2)cc1C` [Compound 49, trans-4-Hydroxy-N-((trans-4-(4-methoxy-3-methylphenyl)cyclohexyl)methyl)-N-(3-(4-methoxypiperidin-1-yl)phenyl)cyclohexanecarboxamide], the figure is ≤ 3 µM.

In general, EC50 refers to the midpoint of the concentration-response curve. High values mean lower potency in that assay, low ones higher potency in that assay.
